Publication PMC9340770 (Journal of Medicinal Chemistry, 2022)
Like-named read-outs stand apart in the source and are kept apart here.

Columns and labels:
[1] = test system: phosphorylated ERK1/2 (pERK) in MKN1 cells; assay: cells; assay type: cell-based; conditions: Homo sapiens
[2] = Human liver microsome intrinsic clearance; assay type: in vitro ADME; conditions: human liver microsomes
human EGFR = target: T1, human EGFR (Homo sapiens, UniProt P00533); assay type: biochemical
T1 construct: purchased Reaction Biology

in vivo = conditions: CD-1, mouse, pH 5; for clearance: iv, 3 mg/kg; for AUC(0-t) / bioavailability: po, 100 mg/kg
[3] = test system: pERK in MIA PaCa-2 tumors; assay: Tumor pharmacodynamic (pERK) study in MIA PaCa-2 mouse xenograft
[4] = test system: MIA PaCa-2 tumor mouse xenograft; assay: Antitumor efficacy study in MIA PaCa-2 mouse xenograft; conditions: single agent MRTX849, 10 mg/kg qd, 25 days
[5] = MKN-1, In-Cell Western Assay measuring pERK, read-out: MKN1 Cell IC50
[6] = MKN-1, read-out: MKN1 Cell IC50
[7] = PO CD-1 mice, 100 mg/kg, 0.5% MC (4000 cps)/0.2% Tween80 in water

T1 sequence (P00533 25-1210): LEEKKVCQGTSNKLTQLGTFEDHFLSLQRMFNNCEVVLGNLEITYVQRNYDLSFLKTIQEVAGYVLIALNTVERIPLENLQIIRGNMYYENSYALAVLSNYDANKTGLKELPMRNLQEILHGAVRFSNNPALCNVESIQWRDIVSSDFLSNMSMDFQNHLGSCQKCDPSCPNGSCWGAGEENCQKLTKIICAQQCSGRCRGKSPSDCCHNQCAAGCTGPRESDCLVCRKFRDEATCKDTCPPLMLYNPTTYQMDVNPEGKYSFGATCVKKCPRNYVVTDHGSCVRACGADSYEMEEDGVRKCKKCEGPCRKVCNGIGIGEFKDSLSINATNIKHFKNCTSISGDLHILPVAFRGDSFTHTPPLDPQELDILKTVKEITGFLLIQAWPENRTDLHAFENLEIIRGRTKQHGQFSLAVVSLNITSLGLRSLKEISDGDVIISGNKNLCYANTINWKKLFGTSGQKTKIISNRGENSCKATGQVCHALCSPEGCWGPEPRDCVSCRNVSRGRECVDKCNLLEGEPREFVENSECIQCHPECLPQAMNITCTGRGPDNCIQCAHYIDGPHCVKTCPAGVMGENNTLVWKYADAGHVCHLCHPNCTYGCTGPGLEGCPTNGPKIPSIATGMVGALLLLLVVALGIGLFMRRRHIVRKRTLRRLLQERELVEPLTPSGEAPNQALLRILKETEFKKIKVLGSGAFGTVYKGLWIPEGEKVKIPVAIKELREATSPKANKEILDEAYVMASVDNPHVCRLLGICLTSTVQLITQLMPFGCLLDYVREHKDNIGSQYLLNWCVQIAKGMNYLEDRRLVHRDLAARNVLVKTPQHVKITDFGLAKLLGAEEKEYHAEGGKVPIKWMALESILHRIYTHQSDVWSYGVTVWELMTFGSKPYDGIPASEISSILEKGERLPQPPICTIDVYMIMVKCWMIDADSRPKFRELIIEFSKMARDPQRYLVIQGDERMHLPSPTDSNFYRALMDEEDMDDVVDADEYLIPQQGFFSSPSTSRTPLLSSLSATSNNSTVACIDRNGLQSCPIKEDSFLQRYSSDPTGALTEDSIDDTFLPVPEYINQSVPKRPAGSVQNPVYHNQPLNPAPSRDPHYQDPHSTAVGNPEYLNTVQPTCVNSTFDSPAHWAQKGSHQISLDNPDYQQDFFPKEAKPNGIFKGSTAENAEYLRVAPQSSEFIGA

SMILES: Cc1c(C#N)cccc1[C@@H](C)Nc1nnc(C)c2cc(C#N)c(N3CCOCC3)cc12 [Compound 37]
- IC50 [1, 5]: 490 nM

SMILES: Cc1nnc(N[C@H](C)c2cccc(C#N)c2)c2cc(N3CCOCC3)ncc12 [Compound 34]
- CLint scaled [2]: 505 mL/min/kg

SMILES: Cc1nnc(N[C@H](C)c2cccc(C(F)(F)F)n2)c2cc(N3CCOCC3)ncc12 [Compound 26]
- IC50 [1, 6]: 185 nM
- CLint scaled [2]: 206 mL/min/kg

SMILES: COc1cc2cnnc(N[C@H](C)c3cccc(C(F)(F)F)c3)c2cc1OC [Compound 8]
- IC50 [1, 6]: 958 nM
- IC50 (human EGFR; 10 μM ATP): > 10000 nM

SMILES: Cc1ncccc1[C@@H](C)Nc1nnc(C)c2cnc(N3CCOCC3)cc12 [Compound 28]
- CLint scaled [2]: 21 mL/min/kg

SMILES: Cc1nn(C)cc1[C@@H](C)Nc1nnc(C)c2cnc(N3CCOCC3)cc12 [Compound 29]
- IC50 [1, 6]: 3280 nM
- CLint scaled [2]: 15 mL/min/kg

SMILES: Cc1c([C@@H](C)Nc2nnc(C)c3cnc(N4CCOCC4)cc23)cccc1S(C)(=O)=O [Compound 33]
- CLint scaled [2]: 7.9 mL/min/kg

SMILES: Cc1c([C@@H](C)Nc2nnc(C)c3cnc(N4CCNCC4)cc23)cccc1C(F)(F)F [Compound 23]
- Eh (mouse, IV 3 mg/kg): 0.58
- clearance (in vivo): 52 mL/min/kg
- AUC(0-t) (in vivo): 9970 ng·h/mL
- bioavailability (in vivo): 44%
- CLint scaled [2]: 27 mL/min/kg

SMILES: COc1cc2cnnc(N[C@H](C)c3cccc4ccccc34)c2cc1OC [Compound 7]
- IC50 [1, 5]: > 10000 nM
- IC50 (human EGFR; 10 μM ATP): > 10000 nM

SMILES: Cc1nnc(N[C@H](C)c2cccc(C(F)(F)F)c2F)c2cc(N3CCOCC3)ncc12 [Compound 25]
- CLint scaled [2]: 214 mL/min/kg

SMILES: COc1cc2cnnc(N[C@H](C)c3ccccc3C)c2cc1OC [Compound 9]
- IC50 [1, 5]: > 10000 nM
- IC50 (human EGFR; 10 μM ATP): > 10000 nM

SMILES: CNCc1ccccc1-c1csc([C@@H](C)Nc2nncc3cc(OC)c(OC)cc23)c1 [Compound 11]
- IC50 (human EGFR): > 10000 nM

SMILES: COc1cc2cnnc(N[C@H](C)c3cccc(C(F)(F)F)c3C)c2cc1OC [Compound 10]
- IC50 (human EGFR; 10 μM ATP): > 10000 nM

SMILES: Cc1c([C@@H](C)Nc2nnc(C)c3cnc(N4CCOCC4)cc23)cccc1C(F)(F)F [Compound 24]
- IC50 [1, 5]: 26 nM
- tumor pERK modulation, single agent ([3]; 24 at 100 mg/kg bid PO, 21 days, 3 h after last dose): No modulation
- reduction in tumor pERK, combination ([3]; 24 at 100 mg/kg bid in combination with MRTX849 10 mg/kg qd, PO, 21 days, 3 h after last dose): 69%
- mPK PO Dosing %F [7]: ~100%
- mPK PO Dosing AUC0-last [7]: 130318 ng·h/mL
- clearance (in vivo): 17 mL/min/kg
- CLint scaled [2]: 114 mL/min/kg

SMILES: Cc1c([C@@H](C)Nc2n[nH]c(=O)c3ccc(N4CCNCC4)cc23)cccc1C(F)(F)F [Compound 21]
- IC50 [1, 6]: 114 nM

SMILES: Cc1nnc(N[C@H](C)c2cc(N)cc(C(F)(F)F)n2)c2cc(N3CCOCC3)ncc12 [Compound 27]
- CLint scaled [2]: 18 mL/min/kg

SMILES: Cc1c(Br)cccc1[C@@H](C)Nc1nnc(C)c2cnc(N3CCOCC3)cc12 [Compound 31]
- IC50 [1, 6]: 114 nM
- CLint scaled [2]: 396 mL/min/kg

SMILES: Cc1c(C#N)cccc1[C@@H](C)Nc1nnc(C)c2cc(F)c(N3CCOCC3)cc12 [Compound 35]
- IC50 [1, 5]: 120 nM

SMILES: Cc1c([C@@H](C)Nc2nnc(C)c3ccc(N4CCNCC4)cc23)cccc1C(F)(F)F [Compound 15]
- clearance (in vivo): 85 mL/min/kg
- AUC(0-t) (in vivo): 1300 ng·h/mL
- bioavailability (in vivo): 11%

SMILES: Cc1c([C@@H](C)Nc2nnc(C)c3ccc(C4CCNCC4)cc23)cccc1C(F)(F)F [Compound 16]
- IC50 [1, 6]: 183 nM

SMILES: COc1cc2cnnc(N[C@H](C)c3ccccc3)c2cc1OC [Compound 6]
- IC50 [1, 5]: > 10000 nM
- IC50 (human EGFR; 10 μM ATP): > 10000 nM

SMILES: COc1nnc(N[C@H](C)c2cccc(C(F)(F)F)c2C)c2cc(N3CCNCC3)ccc12 [Compound 19]
- IC50 [1, 5]: > 10000 nM

SMILES: Cc1c(C#N)cccc1[C@@H](C)Nc1nnc(C)c2cc(Cl)c(N3CCOCC3)cc12 [Compound 36]
- IC50 [1, 6]: 286 nM

SMILES: Cc1c([C@@H](C)Nc2nn(C)c(=O)c3ccc(N4CCNCC4)cc23)cccc1C(F)(F)F [Compound 22]
- IC50 [1, 6]: 881 nM

SMILES: Cc1nnc(N[C@H](C)c2cn(C)nc2C(F)(F)F)c2cc(N3CCOCC3)ncc12 [Compound 30]
- IC50 [1, 6]: 1150 nM
- CLint scaled [2]: 37 mL/min/kg

SMILES: C=C(F)C(=O)N1CCN(c2nc(OC[C@@H]3CCCN3C)nc3c2CCN(c2cccc4cccc(Cl)c24)C3)C[C@@H]1CC#N [MRTX849, adagrasib, reference compound]
- tumor pERK modulation, single agent ([3]; MRTX849 at 10 mg/kg qd PO, 21 days): No modulation
- plasma concentration of MRTX849 ([3]; MRTX849 dosed in combination with MRTX0902): remained unchanged
- tumor growth inhibition (TGI) [4]: 94%

SMILES: Cc1c([C@@H](C)Nc2nnc(C(F)(F)F)c3ccc(N4CCNCC4)cc23)cccc1C(F)(F)F [Compound 18]
- IC50 [1, 5]: > 10000 nM
